Data published in paper PMC8953427, “Enantioselectivity of Pentedrone and Methylone on Metabolic Profiling in 2D and 3D Human Hepatocyte-like Cells” (Pharmaceuticals, 2022).

Experiments:
Caco-2 cell monolayer = test system: Caco-2 cell monolayer; set-up: method as in PMID 32234388; conditions: cited from earlier work
2D-HLCs = test: Metabolite formation in 2D-HLCs by GC-MS; assay type: in vitro ADME, human; conditions: 1 mM, 6 h
Protocol: (§1) Regarding the study of methylone and pentedrone metabolite biosynthesis, in 2D-HLCs and 3D-HLCs, at the D17 of the HLCs differentiation, the cells were seeded in 6-well plates in 1 mL of culture medium at a density of 2.0 × 10^5 cells/well and 5.0 × 10^5 cells/well in 2D and 3D cultures, respectively. At D34, 2D-HLCs and 3D-HLCs were exposed to 1 mM of each enantiomer diluted in IMDM. Upon 6 h of incubation, the IMDM was removed and the pellets were quenched with 2 mL of ice-cold acetonitrile and scraped. The quenched solutions were centrifuged for 10 min at 4 °C. After the addition of methcathinone (internal standard) 100 µg/mL, the supernatants were derivatized with TFAA and analyzed by GC–MS [2, 41].
(§2) To study pentedrone and methylone metabolic profiles, we set up a methodology for the identification of pentedrone and methylone phase I metabolites based on a GC–MS methodology developed by Araujo et al. and Uralets et al. with some adaptations. Briefly, samples from the metabolic assays (200 μL) were evaporated to dryness under nitrogen flow. Then, 50 µL of ethyl acetate and 50 µL of TFAA (derivatizing agent) were added to the dried residue. Incubation was performed at 65 °C for 15 min. After cooling to room temperature, the extract was dried under nitrogen flow. The residue obtained was dissolved in 100 μL of ethyl acetate, and 2 μL was injected into the GC–MS apparatus.
(§3) GC–MS analysis was performed with a 436-GC model (Bruker Daltonics, Billerica, MA, USA) coupled to an EVOQ triple quadrupole mass spectrometer (Bruker Daltonics) and a Bruker MS workstation software version 8.2. The chromatographic separation was accomplished using a fused silica capillary column (Rxi-5Sil MS; 30 m × 0.25 mm × 0.25 μm; Restek Corporation, U.S., Bellefonte, PA, USA). The carrier gas was helium C-60 (Gasin, Portugal), at a constant flow of 1 mL/min. Injections were performed in split mode, with a ratio of 1/20. The injector port was heated to 250 °C. The initial column temperature was 80 °C, followed by a temperature increase of 15 °C/min to 150 °C and 10 °C/min to 300 °C. The MS detector was operated in EI mode (70 eV). The temperature of the transfer line, manifold and EI were 280, 40, and 270 °C, respectively. Data acquisition was performed in full scan mode with a mass range between 50 and 800 m/z at a scan rate of 8 scans/s. The emission current was 40 µA. Ionization was maintained off during the first 1.5 min to avoid solvent overloading. Total separation run time was 20 min.
The analysis was initially performed in full scan mode. […] For that, specific metabolites of methylone and pentedrone, already identified in previous studies, were selected to postulate their mass fragmentation according to their chemical structures (Figure 11) for posterior analysis using the specific ions (m/z in SIM mode) to identify and confirm the metabolite peaks. In SIM mode the selected m/z ions were: IS—m/z 77, 105, 110, and 154; methylone—m/z 121, 149, 154, and 303; nor-methylone—m/z 121, 140, 149, 168, 289, and 260; dihydromethylone—m/z 121, 154, 247, 280, and 401; DHMC—m/z 154, 182, 209, 237, and 391; N-hydroxymethylone—m/z 121, 149, 170, 198, and 319; nor-pentedrone—m/z 77, 105, 126, 168, and 273; dihydropentedrone—m/z 140, 182, 203, 272, and 385; and pentedrone—m/z 77, 105, 140, and 182.

SH-SY5Y cells = test system: SH-SY5Y cells; set-up: method as in PMID 33609514; conditions: cited from earlier work
[1] = test system: 3D-HLCs (human stem-cell-derived hepatocyte-like cells); test: Cell viability (CellTiter-Glo 3D) in 3D spheroid HLCs; assay type: cell-based; conditions: 24 h; for concentrations at which cytotoxicity was observed: racemate, 3D-HLCs, compared to control cells
Protocol: (§4) The hnMSCs isolated from human umbilical cord stroma were fully characterized as described elsewhere and expanded in Eagle’s minimum essential medium—alpha modification (α-MEM) supplemented with 10% (v/v) of fetal bovine serum (FBS; Gibco, Paisley, UK). For generating HLCs, a three-step differentiation protocol was applied to hnMSCs, as detailed previously. Briefly, hnMSCs were seeded at a density of 1.5 × 10^5 cells/cm^2 in a rat-tail collagen (0.2 mg/mL) coated surface plates. At day 17 (D17) of differentiation, cells were trypsinized and reinoculated in Iscove’s modified Dulbecco’s medium (IMDM) with 8 ng/mL oncostatin M (OSM; Peprotech, Rocky Hill, NJ, USA), 1 µM dexamethasone, 1% dimethyl sulfoxide (DMSO) and 1% insulin-transferrin-selenium solution (Gibco, Grand Island, NY, USA), 20 µM of 5-azacytidine, and 5% (v/v) FBS into (i) ultra-low attachment (ULA; VWR International, Radnor, PA, USA) plates (5 × 10^5 cells/mL) to obtain a 3D spheroid culture or (ii) 2D culture plates pre-coated with collagen (2 × 10^4 cells/cm^2). Medium was changed 24 h after inoculation to remove 5-azacytidine and FBS. Cells were maintained until D34 in this medium, which was replaced every 3 days.
(§5) The cytotoxicity of the racemic mixtures (0.25, 0.5, 1.0, 2.0, 3.0, 4.0, 6.0, 8.0, 10.0, and 20.0 mM) and enantiomers (0.5 and 1.0 mM) of pentedrone and methylone were evaluated in both 2D monolayer and 3D spheroid cultures of HLCs, maintained as described above with slight changes. Briefly, at D17 of differentiation, cells were seeded in 96-well plates in 200 μL of culture medium at a density of 6.4 × 10^3 cells/well and 1.6 × 10^4 cells/well in 2D and 3D cultures, respectively. At D34, HLCs cultured in 2D and 3D were exposed to the abovementioned racemic mixtures and enantiomers diluted in IMDM. Cell viability was measured upon 24 h of incubation with the compounds using the CellTiter-Glo® 3D Cell Viability Assay (Promega, Madison, WI, USA), according to manufacturer instructions. Five percent DMSO was used as negative control and IMDM as positive control. IC50 was calculated for the racemic mixtures using a nonlinear regression fit for the Log10 transformation of the concentration values by using GraphPad Prism version 7.0 (GraphPad Software, La Jolla, CA, USA). Three independent experiments were performed.

[2] = as above; assay type: cell-based, human; conditions: human; racemate, 3D-HLCs, 24 h exposure, 0-20.0 mM; read-out: EC50 (cytotoxicity)
Protocol: as §4, §5

[3] = test system: 2D-HLCs (human stem-cell-derived hepatocyte-like cells); test: Cell viability (CellTiter-Glo 3D) in 2D monolayer HLCs; assay type: cell-based; conditions: racemate, 24 h, 0-20.0 mM
Protocol: as §4, §5

[4] = as above; assay type: cell-based, human; conditions: human; racemate, 2D-HLCs, 24 h exposure, 0-20.0 mM; read-out: EC50 (cytotoxicity)
Protocol: as §4, §5

[5] = test system: human liver microsomes (HLM); conditions: cited from earlier work
[6] = test system: human liver microsomes (HLM); test: Metabolism in ultra-pool human liver microsomes by GC-MS; assay type: in vitro ADME; conditions: HLM 1 mg protein/mL, 50 µM enantiomer, 0-60 min
Protocol: The metabolism of methylone and pentedrone was initially evaluated by incubation with ultra-pool human liver microsomes (HLM) at a final assay concentration of 1 mg protein/mL. All experiments were performed in duplicate. The incubation mixture with the HLM consisted of 1.3 mM NADP^+, 3.3 mM glucose-6-phosphate, 3.3 mM MgCl2, 0.4 IU/mL glucose-6-phosphate dehydrogenase, and 0.05 mM sodium citrate in 0.1 M phosphate buffer at pH 7.4. The incubation mixture with each drug was pre-incubated 10 min at 37 °C before the experiment was started with the addition of the HLM. All microsomes assays were incubated with 50 µM of each enantiomer in a final volume of 1 mL at 37 °C. At the time points 0, 5, 10, 20, 30, 40, 50, and 60 min, 100 µL aliquots of the incubations were quenched with 100 µL of ice-cold acetonitrile and methcathinone (internal standard) 100 µg/mL. The quenched solutions were centrifuged for 10 min at 4 °C and the supernatants were extracted with ethyl acetate after previous pH correction (pH = 11 for pentedrone and pH = 13 for methylone).
To study pentedrone and methylone metabolic profiles, we set up a methodology for the identification of pentedrone and methylone phase I metabolites based on a GC–MS methodology developed by Araujo et al. and Uralets et al. with some adaptations. […]

3D-HLCs = test: Metabolite formation in 3D-HLCs by GC-MS; assay type: in vitro ADME, human; conditions: 1 mM, 6 h
Protocol: as §1, §2, §3
The analysis was initially performed in full scan mode. […]

[7] = cited from earlier work
[8] = test system: primary rat hepatocytes (PRH); conditions: read-out: EC50 (cytotoxic effects), racemic; cited from earlier work

Compound	enantioselectivity in intestinal absorption (permeability) (Caco-2 cell monolayer)	preferential metabolic route of the enantiomer (2D-HLCs)	enantioselectivity in cytotoxicity (SH-SY5Y cells)	concentrations at which cytotoxicity was observed [1]	EC50 at 24 h [2] [mM]	cytotoxicity compared to control cells [3]	EC50 at 24 h [4] [mM]	phase I metabolites identified [6]	metabolite with the highest formation (3D-HLCs)	liver-to-blood ratio [7]	metabolite with the highest formation (2D-HLCs)	EC50 [8] [mM]	preferential metabolic route of the enantiomer (3D-HLCs)	also measured
S-(−)-methylone	most permeable	preferentially metabolized via N-demethylation												
CCC[C@H](NC)C(=O)c1ccccc1 [S-(+)-pentedrone]			most cytotoxic											
CNC(C)C(=O)c1ccc2c(c1)OCO2 (centres unmarked) [methylone]				> 3000 µM	5.2	significant cytotoxicity for all concentrations tested	4.8	N-hydroxymethylone, DHMC, dihydromethylone, and nor-methylone	N-Hydroxymethylone	≤ 3	N-Hydroxymethylone	1.6		enzymes metabolizing the drug [5]: initially metabolized by CYP2D6, with minor contributions of CYP1A2, CYP2B6, and CYP2C19
CCC[C@@H](NC)C(=O)c1ccccc1 [R-(−)-pentedrone]	most permeable	preferentially metabolized by all metabolic routes											preferentially metabolized by β-keto reduction	enantioselectivity in cytotoxicity ([1]; enantiomers at 1 mM, 3D cultures): most cytotoxic enantiomer
CN[C@H](C)C(=O)c1ccc2c(c1)OCO2 [R-(+)-methylone]		preferentially metabolized by O-demethylation and N-hydroxylation	most cytotoxic										preferentially metabolized by all metabolic routes, except for O-demethylation	
CCCC(NC)C(=O)c1ccccc1 (centres unmarked) [pentedrone]				higher than 1.0 mM	3.6	significant cytotoxicity for all concentrations tested	2.8	dihydropentedrone and nor-pentedrone	dihydropentedrone	up to 11	dihydropentedrone	0.7		
